Test results taken from article PMC5118228 (EJNMMI Research, 2016).

Legend:
[1] = system: nontumor-bearing mice; format: in vivo; details: control, 4 × 0.3 nmol unlabeled DOTATATE; nontumor-bearing mice; n=8
Experimental: MTD was defined as the highest dose given to the animals allowing 100% survival with no significant weight loss >15% throughout the experiment. Nontumor-bearing mice were randomly divided into seven cohorts used to evaluate MTD, six treatments and one control (n = 8/cohort); see Table 1. […] Control mice received DOTATATE (4 × 0.3 nmol) on four consecutive days. The animals were followed for 90 days. Serum was analyzed for the biomarker neutrophil gelatinase-associated lipocalin (NGAL) using ELISA (R&D Systems, 450 nm).

[2] = system: patients; details: in vivo; cited from earlier work
From the text: Radiolabeled somatostatin analogs are known to accumulate in the renal proximal tubules, due to their net charge, electrostatic forces, and charge distribution from metal-chelation. This can result in a high absorbed dose and subsequent renal dysfunction.

SMILES | survival at 90 days post-treatment [1] | reduction of renal uptake by co-infusion of L-lysine/L-arginine [2]
C[C@@H](O)[C@H](NC(=O)[C@@H]1CSSC[C@H](NC(=O)[C@@H](Cc2ccccc2)NC(=O)CN2CCN(CC(=O)O)CCN(CC(=O)O)CCN(CC(=O)O)CC2)C(=O)N[C@@H](Cc2ccc(O)cc2)C(=O)N[C@H](Cc2c[nH]c3ccccc23)C(=O)N[C@@H](CCCCN)C(=O)N[C@@H]([C@@H](C)O)C(=O)N1)C(=O)O [DOTATATE] | all control animals survived | 
C[C@@H](O)[C@H](NC(=O)[C@@H]1CSSC[C@H](NC(=O)[C@@H](Cc2ccccc2)NC(=O)CN2CCN(CC(=O)[O-])CCN(CC(=O)[O-])CCN(CC(=O)[O-])CC2)C(=O)N[C@@H](Cc2ccc(O)cc2)C(=O)N[C@H](Cc2c[nH]c3ccccc23)C(=O)N[C@@H](CCCCN)C(=O)N[C@@H]([C@@H](C)O)C(=O)N1)C(=O)O.[177Lu+3] [^177Lu-DOTATATE, ^177Lu-[DOTA^0,Tyr^3]octreotate] |  | 30–50%
